{"source": "patent US20080032896A1", "about": "“Methods for identifying compounds that bind to a target” (priority 1995, published 2008)", "key": {"[1]": {"test_system": "anti-FGF monoclonal antibody", "experiment": "FGF binding assay: inhibition of radiolabeled FGF binding to biotinylated anti-FGF antibody", "design": "species or system mouse", "procedure": "FIG. 1 is a graph depicting the ability of compounds PPI-432, PPI-652 and PPI-654 to inhibit the binding of radiolabeled FGF to an anti-FGF antibody.\nThe activities of the libraries were tested using an FGF binding assay. […] Since Libraries I and II are highly diverse, the active non-peptide compounds should have a spectrum of potencies which cumulatively yield the average potency seen in the library.\nThe eluted non-peptide compounds were brought to dryness under vacuum. Recovered non-peptide compounds were dissolved in 50 μl water and tested for their ability to block the interaction of bFGF with the target protein. (Assuming 100% recovery of non-peptide compounds and 100% binding to bivalent antibody, the amount of recovered non-peptide compounds was calculated to be 200 ng).\nSeveral of the non-peptide compounds selected from the combinatorial library were made synthetically and compared to the starting peptide (PPI-432) for their ability to bind to the target protein. The compounds were synthesized with an amino-terminal acetyl group and a carboxy-terminal amide. The potency of two non-peptide compounds (PPI-652 and PPI-654, shown in Table 2), containing modified amino acids at positions 5 and 7, were compared to the starting peptide PPI-432 in their ability to inhibit radiolabeled FGF binding to biotinylated anti-FGF antibody. […]"}, "[2]": {"test_system": "monoclonal antibody to bFGF", "experiment": "Competitive binding: blocking of phage binding to the anti-bFGF antibody", "design": "species or system mouse", "settings": "phage containing the sequence P-R-G-H-W-K-Q (SEQ ID NO: 9); competitive binding experiments", "procedure": "A monoclonal antibody raised against human basic FGF (bFGF) was used as a biopanning target using a 7-mer peptide library in a bacteriophage M13 vector. To prepare the biopanning plates, four wells of an Immulon4 microtiter plate (Dynatech) were coated with stepavidin (1 μg/well) in 100 mM NaHCO3, pH 9.5, for 2 hours at room temperature or overnight at 4° C. The strepavidin-coated wells were washed three times with phosphate-buffered saline (PBS). To each well containing strepavidin, biotinylated rat anti mouse antibody K light chain (PharMingen) was added, at 1 μg/well, in PBS for 30 minutes to 1 hour at room temperature. The wells were then washed again with PBS three times. Non-specific binding sites were blocked with 300 μl/well PBS, 1% dry milk for 1 hour at room temperature. The wells were then washed with PBS, 0.1% dry milk three times, loaded with 50 μl/well PBS, 0.1% dry milk and stored at 4° C. […]\nAfter the 2 hour room temperature incubation of the phage with the antibody, the PBS, 0.1% milk buffer was removed from the wells of the strepavidin/biotinylated α-mouse complex plates and the corresponding 100 μl of each tube containing the antibody/phage mixture was added to each of the four wells. […] The phage eluant was titered and the fractional yield determined. […]"}}}
{"substance": "G-A-F-P-P-G-H-F-K-D-P-D-R-L (GAFPPGHFKDPDRL) [PPI-416]", "values": [{"measurement": "blocking of the binding of bFGF to the antibody", "setting": "[1]", "value": "blocked"}, {"measurement": "blocking of phage binding to the antibody", "setting": "[2]", "value": "blocked"}]}
{"substance": "P-P-G-H-F-K-D (PPGHFKD) [PPI-432]", "values": [{"measurement": "blocking of the binding of bFGF to the antibody", "setting": "[1]", "value": "blocked"}]}
